Experimental data from patent US20260242352A1, “INHIBITION OF SHIP1 AS A THERAPEUTIC STRATEGY FOR THE TREATMENT OF ALZHEIMER'S DISEASE” (The Trustees of Indiana University, priority 2022, published 2026).

How the values were obtained:
[1] = tested on: phosphorylated and total AKT (pAKT/tAKT) in THP1 cells; assay: PhosphoAKT assay; assay type: cell-based; conditions: Homo sapiens, THP-1, 1.5 h, 90 minutes, pAKT (S473)/tAKT ratio, (n) in cell
Protocol: (§1) PhosphoAKT assay. THP1 cells were treated with inhibitors for 90 minutes and then the levels of phosphorylated and total AKT (pAKT/tAKT) were detected using the Perkin Elmer Alpha SureFire Ultra Multiplex PhosphoAKT (S473) kit according to the manufacturer's directions. IC50 values were calculated by fitting the ratio of pATK/tAKT versus inhibitor concentration.
as §1, with “THP1” for “PhosphoAKT assay. THP1”

primary mouse microglia = assay: Phagocytosis in primary mouse microglia; assay type: cell-based; conditions: pHrodo-myelin
Protocol: Activity of Compound 9 in primary mouse microglia. Cortical tissue from C57BL/6J neonatal mice (P0-P3) was homogenized in Dulbecco's Modified Eagle Medium (DMEM), filtered through 250 and 100 μm mesh, and cultured in Advanced DMEM/F12 supplemented with 10% fetal bovine serum, 1× GlutaMAX and 1× Penicillin/Streptomycin. At 21 days in vitro (DIV), the cultures were subjected to mild trypsinization using 0.083% Trypsin-EDTA in DMEM for 30 mins to detach an intact layer of astrocytes. The microglia attached to the bottom were used as described in pHrodo-myelin phagocytosis assay to measure phagocytosis and cell health. The activity of Compound 10 in primary mouse microglia was obtained in a similar manner to Compound 9. Cortical tissue from C57BL/6J neonatal mice (P0-P3) was homogenized in Dulbecco's Modified Eagle Medium (DMEM), filtered through 250 and 100 μm mesh, and cultured in Advanced DMEM/F12 supplemented with 10% fetal bovine serum, 1× GlutaMAX and 1× Penicillin/Streptomycin. At 21 days in vitro (DIV), the cultures were subjected to mild trypsinization using 0.083% Trypsin-EDTA in DMEM for 30 mins to detach an intact layer of astrocytes. The microglia attached to the bottom were used as described in Example 13 to measure myelin phagocytosis and cell health. The results are depicted in FIG. 3. Primary Mouse Microglia of compound 10 was obtained in a similar manner to compound 9. The results are depicted in FIG. 3.

[2] = Pharmacokinetics in C57BL/6J mice; assay type: in vivo, mouse; conditions: dosed orally at 100 mg/kg
Protocol: Pharmacokinetics of Compound 9. Compound 9 was formulated at 5 mg/ml in HPMC (1%)/Tween 80 (0.25%)/purified water. Male C57BL/6J mice aged 8-12 weeks from The Jackson Laboratory were dosed (100 mg/kg, 20 ml/kg) via oral gavage. Plasma exposures at 0.5, 1, 2, 4, 6, 8, 12 hr and terminal at 24 hr were obtained. Brain exposures were obtained at terminal 4 and 24 hrs. The pharmacokinetics of Compound 10 was obtained in a similar manner to Compound 9. Compound was formulated in hydroxyethylcellulose (1%)/Tween 80 (0.25%)/antifoam (0.050%)/water (purified) at a concentration of 5 mg/ml. 100 mg/kg, 20 ml/kg was dosed via oral gavage. Plasma exposures at 0.25, 0.5, 1, 2, 8 hr and terminal at 24 hrs were obtained. Brain exposures were obtained at terminal 4 and 24 hrs. The results are depicted in FIG. 4. Pharmacokinetics of compound 10 in C57BL/6J Mice were obtained in a similar manner as compound 9. The results are depicted in FIG. 4.

SMILES | IC50 [1] | other results
Cc1ccccc1COc1cncc(-c2cnn(C3CCN(C(=O)OC(C)(C)C)CC3)c2)c1 [Compound 3, tert-butyl 4-(4-(5-((2-methylbenzyl)oxy)pyridin-3-yl)-1H-pyrazol-1-yl)piperidine-1-carboxylate] | 31.2 µM | 
CC(C)(C)OC(=O)N1CCC(n2cc(-c3cncc(OCc4ccccc4)c3)cn2)CC1 [Compound 4, tert-butyl 4-(4-(5-(benzyloxy)pyridin-3-yl)-1H-pyrazol-1-yl)piperidine-1-carboxylate] | 31.6 µM | 
Cl.Clc1ccccc1COc1cncc(-c2cnn(C3CCNCC3)c2)c1 [Compound 9, 3-((2-chlorobenzyl)oxy)-5-(1-(piperidin-4-yl)-1H-pyrazol-4-yl)pyridine hydrochloride] |  | EC50 (primary mouse microglia): 1.3 µM; increased phagocytosis (primary mouse microglia): 1.8 fold; exposure in brain [2]: 0.5 µM; exposure in plasma [2]: 5 µM
Cl.Clc1ccc(COc2cncc(-c3cnn(C4CCNCC4)c3)c2)c(Cl)c1 [Compound 10, 3-((2,4-dichlorobenzyl)oxy)-5-(1-(piperidin-4-yl)-1H-pyrazol-4-yl)pyridine hydrochloride] | 6.52 µM | EC50 (primary mouse microglia): 0.54 µM; increased phagocytosis (primary mouse microglia): 1.5 fold; exposure in brain [2]: 6 µM; exposure in plasma [2]: 2 µM
CC(C)(C)CCN1CCC(n2cc(-c3cncc(OCc4ccccc4Cl)c3)cn2)CC1 [Compound 15, 3-((2-chlorobenzyl)oxy)-5-(1-(1-(3,3-dimethylbutyl)piperidin-4-yl)-1H-pyrazol-4-yl)pyridine] | 17.9 µM | 
CC(C)(C)CC(=O)N1CCC(n2cc(-c3cncc(OCc4ccccc4Cl)c3)cn2)CC1 [Compound 16, 1-(4-(4-(5-((2-chlorobenzyl)oxy)pyridin-3-yl)-1H-pyrazol-1-yl)piperidin-1-yl)-3,3-dimethylbutan-1-one] | > 60 µM | 
C[C@@H](Oc1cncc(-c2cnn(C3CCNCC3)c2)c1)c1ccc(Cl)cc1 [Compound 23, (R)-3-(1-(4-chlorophenyl)ethoxy)-5-(1-(piperidin-4-yl)-1H-pyrazol-4-yl)pyridine] | 4.06 µM | 

Continued, in another order:

IC50 [1] | SMILES | other results
58.4 µM | Cc1ccccc1COc1cncc(-c2cnn(C3CCNCC3)c2)c1 [Compound 25, 3-[(2-Methylphenyl)methoxy]-5-[1-(piperidin-4-yl)-1H-pyrazol-4-yl]pyridine] | 
7.72 µM | Clc1ccccc1COc1cncc(-c2ccn(C3CCNCC3)n2)c1 [Compound 26, 3-((2-chlorobenzyl)oxy)-5-(1-(piperidin-4-yl)-1H-pyrazol-3-yl)pyridine] | 
> 60 µM | Clc1ccccc1COc1cncc(-n2ccc(C3CCNCC3)n2)c1 [Compound 27, 3-((2-chlorobenzyl)oxy)-5-(3-(piperidin-4-yl)-1H-pyrazol-1-yl)pyridine] | 
5.57 µM | Clc1ccccc1COc1cncc(-n2cc(C3CCNCC3)cn2)c1 [Compound 28, 3-((2-chlorobenzyl)oxy)-5-(4-(piperidin-4-yl)-1H-pyrazol-1-yl)pyridine] | 
6.55 µM | Clc1ccccc1COc1cccc(-c2cnn(C3CCNCC3)c2)c1 [Compound 29, 4-(4-(3-((2-chlorobenzyl)oxy)phenyl)-1H-pyrazol-1-yl)piperidine] | 
